Consider twelve compounds from patent US20230265116A1, “DEGRADATION OF (EGFR) BY CONJUGATION OF EGFR INHIBITORS WITH E3 LIGASE LIGAND AND METHODS OF USE” (BEIGENE, LTD., priority 2020, published 2023).

Each structure is given as a SMILES string.

Test [1] addresses T1, EGFR L858R/T790M/C797S (BaF3-LTC cells) (Homo sapiens, UniProt P00533, C797S/L858R/T790M).
T1 construct: expressed in transfected cells; host or cells: BaF3
The test is described as follows: EGFR degradation HTRF assay, BaF3-LTC cells. The format is cell-based. To be noted: BaF3-LTC cells; for DC50: EGFR degradation, IC50 (DC50) from curve fit, read-out: DC50(nM) BaF3-LTC; for Dmax: maximum percentage of inhibition (degradation), read-out: Dmax (%) BaF3-LTC. The method in brief: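 EGFR remaining after a 16 h, 37 °C exposure (8 doses, 5-fold steps from 10 uM final, 0.2% DMSO) was quantified by HTRF antibodies in cell lysate. Percent inhibition relative to DMSO control was fitted by four-parameter logistic to give DC50; Dmax denotes maximal degradation.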
(In general: TR-FRET usually uses a lanthanide donor and a delayed reading to cut background.)

For test [2], the system named is EGFR Del19/T790M/C797S (H1975-clone #28). Briefly: EGFR degradation HTRF assay, H1975-clone #28 DTC cells. It is filed as cell-based. To be noted: H1975 # 28 DTC cells; for DC50: EGFR degradation, IC50 (DC50) from curve fit, read-out: DC50(nM) H1975 # 28 DTC; for Dmax (%) H1975 # 28 DTC: maximum percentage of inhibition (degradation). In short, it runs like this: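 H1975 clones stably overexpressing mutant EGFR, with endogenous EGFR knocked out by sgRNA and homozygosity confirmed by sequencing, were treated 16h at 37° C. with compounds in 0.2% DMSO (top final 10 uM, 5-fold, 8 doses). Lysates were read by HTRF (665/620 nm); DC50 and Dmax came from fitting % degradation versus DMSO control.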

T1 sequence (P00533 25-1210 T790M/C797S/L858R): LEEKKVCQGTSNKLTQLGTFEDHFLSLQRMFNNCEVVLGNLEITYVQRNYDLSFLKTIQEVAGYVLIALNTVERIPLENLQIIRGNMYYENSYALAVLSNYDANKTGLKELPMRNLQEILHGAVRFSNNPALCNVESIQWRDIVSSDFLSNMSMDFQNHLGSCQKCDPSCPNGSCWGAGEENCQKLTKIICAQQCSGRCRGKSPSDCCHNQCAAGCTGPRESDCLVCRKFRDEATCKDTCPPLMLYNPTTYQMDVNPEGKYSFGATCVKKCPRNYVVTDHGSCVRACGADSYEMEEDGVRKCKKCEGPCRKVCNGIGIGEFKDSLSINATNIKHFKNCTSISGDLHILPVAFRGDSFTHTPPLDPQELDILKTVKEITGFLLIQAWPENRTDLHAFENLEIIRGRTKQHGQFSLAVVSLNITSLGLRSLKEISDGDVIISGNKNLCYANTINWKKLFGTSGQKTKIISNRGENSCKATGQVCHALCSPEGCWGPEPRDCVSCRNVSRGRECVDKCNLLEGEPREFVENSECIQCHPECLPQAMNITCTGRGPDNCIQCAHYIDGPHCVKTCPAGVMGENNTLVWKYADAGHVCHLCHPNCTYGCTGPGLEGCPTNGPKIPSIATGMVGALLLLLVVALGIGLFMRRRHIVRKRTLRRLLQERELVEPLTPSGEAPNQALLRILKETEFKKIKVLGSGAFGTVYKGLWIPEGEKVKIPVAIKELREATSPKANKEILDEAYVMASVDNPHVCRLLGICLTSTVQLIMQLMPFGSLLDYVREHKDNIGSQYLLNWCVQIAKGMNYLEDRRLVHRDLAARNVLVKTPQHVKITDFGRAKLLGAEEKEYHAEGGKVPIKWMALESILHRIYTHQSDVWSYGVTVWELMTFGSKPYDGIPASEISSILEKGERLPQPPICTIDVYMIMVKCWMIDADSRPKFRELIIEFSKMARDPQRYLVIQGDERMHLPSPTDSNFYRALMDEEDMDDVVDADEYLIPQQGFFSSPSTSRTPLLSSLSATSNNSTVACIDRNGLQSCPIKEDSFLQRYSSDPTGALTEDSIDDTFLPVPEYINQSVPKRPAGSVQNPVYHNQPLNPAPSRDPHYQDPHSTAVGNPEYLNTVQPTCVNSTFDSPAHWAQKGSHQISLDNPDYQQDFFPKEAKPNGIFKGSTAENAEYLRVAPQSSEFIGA

By DC50 is commonly meant the midpoint of the concentration-degradation curve. In general, Dmax refers to the greatest extent of degradation seen. Regarding `CCOc1cc(N2CCC(N3CCN(CCc4c(F)ccc5c4n(C)c(=O)n5C4CCC(=O)NC4=O)CC3)CC2)c(CC)cc1Nc1ncc(Br)c(Nc2ccc3nc(CC)ccc3c2P(C)(C)=O)n1` (stereo not drawn) [Example 648, 3-(4-(2-(4-(1-(4-((5-bromo-4-((5-(dimethylphosphoryl)-2-ethylquinolin-6-yl)amino)pyrimidin-2-yl)amino)-5-ethoxy-2-ethylphenyl)piperidin-4-yl)piperazin-1-yl)ethyl)-5-fluoro-3-methyl-2-oxo-2,3-dihydro-1H-benzo[d]imidazol-1-yl)piperidine-2,6-dione], in test [1], the DC50 amounted to 15.3 nM and the Dmax stood at 95.8%. Further, in test [2], the DC50 was determined as 4.01 nM and the “Dmax (%) H1975 # 28 DTC” value is given as 81.9%.

In the case of `CCc1ccc2c(P(C)(C)=O)c(Nc3nc(Nc4cc(CC)c(N5CCC(N6CCN(C(=O)[C@@H]7CCN(c8cc(F)c([C@H]9CCC(=O)NC9=O)c(F)c8)C7)CC6)CC5)cc4OC(F)(F)F)ncc3Br)ccc2n1` [Example 649, (R)-3-(4-((R)-3-(4-(1-(4-((5-bromo-4-((5-(dimethylphosphoryl)-2-ethylquinolin-6-yl)amino)pyrimidin-2-yl)amino)-2-ethyl-5-(trifluoromethoxy)phenyl)piperidin-4-yl)piperazine-1-carbonyl)pyrrolidin-1-yl)-2,6-difluorophenyl)piperidine-2,6-dione], in test [1], the DC50 turned out to be 31.8 nM and the Dmax was found to be 78.6%. Further, in test [2], the DC50 was 6.94 nM and the “Dmax (%) H1975 # 28 DTC” value worked out at 75.95%.

As to `CCc1ccc2c(P(C)(C)=O)c(Nc3nc(Nc4cc(CC)c(N5CCC(N6CCN(CC[C@H]7CCN(c8cc(F)c(C9CCC(=O)NC9=O)c(F)c8)C7)CC6)CC5)cc4OC)ncc3Br)ccc2n1` (stereo partly drawn) [Example 650, 3-(4-((S)-3-(2-(4-(1-(4-((5-bromo-4-((5-(dimethylphosphoryl)-2-ethylquinolin-6-yl)amino)pyrimidin-2-yl)amino)-2-ethyl-5-methoxyphenyl)piperidin-4-yl)piperazin-1-yl)ethyl)pyrrolidin-1-yl)-2,6-difluorophenyl)piperidine-2,6-dione], in test [1], the DC50 came out at 16 nM and the Dmax was found to be 75%. For the same compound, in test [2], the DC50 was found to be 3.39 nM and the “Dmax (%) H1975 # 28 DTC” value is 59.93%.

Regarding `CCOc1cc(N2CCC(N3CCN(CCc4ccc5c(c4)oc(=O)n5C4CCC(=O)NC4=O)CC3)CC2)c(CC)cc1Nc1ncc(Br)c(Nc2ccc3nc(C)c(F)cc3c2P(C)(C)=O)n1` (stereo not drawn) [Example 651, 3-(6-(2-(4-(1-(4-((5-bromo-4-((5-(dimethylphosphoryl)-3-fluoro-2-methylquinolin-6-yl)amino)pyrimidin-2-yl)amino)-5-ethoxy-2-ethylphenyl)piperidin-4-yl)piperazin-1-yl)ethyl)-2-oxobenzo[d]oxazol-3(2H)-yl)piperidine-2,6-dione], in test [1], the DC50 was 2.13 nM and the Dmax came out at 87.7%. In test [2], the DC50 was 1.17 nM and the “Dmax (%) H1975 # 28 DTC” value turned out to be 79.33%.

For `CCc1cc(Nc2ncc(Br)c(Nc3ccc4nc(NC5CC5)ccc4c3P(C)(C)=O)n2)c(OC)cc1N1CCC(N2CCN(C(=O)[C@@H]3CCN(c4cc(F)c([C@H]5CCC(=O)NC5=O)c(F)c4)C3)CC2)CC1` [Example 652, (R)-3-(4-((R)-3-(4-(1-(4-((5-bromo-4-((2-(cyclopropylamino)-5-(dimethylphosphoryl)quinolin-6-yl)amino)pyrimidin-2-yl)amino)-2-ethyl-5-methoxyphenyl)piperidin-4-yl)piperazine-1-carbonyl)pyrrolidin-1-yl)-2,6-difluorophenyl)piperidine-2,6-dione], in test [1], the 50% degradation concentration (DC50) is 5.23 nM and the Dmax worked out at 81.1%. Besides, in test [2], the DC50 is 1.35 nM and the “Dmax (%) H1975 # 28 DTC” value stood at 86.65%.

In the case of `CCc1cc(Nc2ncc(Br)c(Nc3ccc4nc(NC5CC5)ccc4c3P(C)(C)=O)n2)c(OC)cc1N1CCC(N2CCN(CCc3cc(F)c([C@H]4CCC(=O)NC4=O)c(F)c3)CC2)CC1` [Example 653, (R)-3-(4-(2-(4-(1-(4-((5-bromo-4-((2-(cyclopropylamino)-5-(dimethylphosphoryl)quinolin-6-yl)amino)pyrimidin-2-yl)amino)-2-ethyl-5-methoxyphenyl)piperidin-4-yl)piperazin-1-yl)ethyl)-2,6-difluorophenyl)piperidine-2,6-dione], in test [1], the DC50 was found to be 7.19 nM and the Dmax stood at 87.7%. In addition, in test [2], the DC50 worked out at 0.7 nM and the “Dmax (%) H1975 # 28 DTC” value stood at 87.89%.

As for `CCc1ccc2c(P(C)(C)=O)c(Nc3nc(Nc4cc(CC)c(N5CCC(N6CCN(CCc7ccc([C@H]8CCC(=O)NC8=O)cc7)CC6)CC5)cc4OC)ncc3Br)ccc2n1` [Example 654, (R)-3-(4-(2-(4-(1-(4-((5-bromo-4-((5-(dimethylphosphoryl)-2-ethylquinolin-6-yl)amino)pyrimidin-2-yl)amino)-2-ethyl-5-methoxyphenyl)piperidin-4-yl)piperazin-1-yl)ethyl)phenyl)piperidine-2,6-dione], in test [1], the DC50 came out at 23.2 nM and the Dmax was found to be 74.8%. Further, in test [2], the 50% degradation concentration (DC50) was 2.08 nM and the “Dmax (%) H1975 # 28 DTC” value is on record as 66.53%.

Turning to `CCc1ccc2c(P(C)(C)=O)c(Nc3nc(Nc4cc(CC)c(N5CCC(N6CCN(C(=O)[C@@H]7CCN(c8cc(F)c([C@H]9CCC(=O)NC9=O)c(F)c8)C7)CC6)CC5)cc4OC4CC4)ncc3Br)ccc2n1` [Example 655, (R)-3-(4-((R)-3-(4-(1-(4-((5-bromo-4-((5-(dimethylphosphoryl)-2-ethylquinolin-6-yl)amino)pyrimidin-2-yl)amino)-5-cyclopropoxy-2-ethylphenyl)piperidin-4-yl)piperazine-1-carbonyl)pyrrolidin-1-yl)-2,6-difluorophenyl)piperidine-2,6-dione], in test [1], the DC50 worked out at 16.4 nM and the Dmax amounted to 90.2%. In test [2], the DC50 was 4.21 nM and the “Dmax (%) H1975 # 28 DTC” value worked out at 81.86%.

Consider `CCc1cc(Nc2ncc(Br)c(Nc3ccc4ccnnc4c3P(C)(C)=O)n2)c(OC)cc1N1CCC(N2CCN(C(=O)[C@@H]3CCN(c4cc(F)c([C@H]5CCC(=O)NC5=O)c(F)c4)C3)CC2)CC1` [Example 656, (R)-3-(4-((R)-3-(4-(1-(4-((5-bromo-4-((8-(dimethylphosphoryl)cinnolin-7-yl)amino)pyrimidin-2-yl)amino)-2-ethyl-5-methoxyphenyl)piperidin-4-yl)piperazine-1-carbonyl)pyrrolidin-1-yl)-2,6-difluorophenyl)piperidine-2,6-dione], for which, in test [1], the DC50 is 5.22 nM and the Dmax was 83.6%. Further, in test [2], the DC50 stood at 1.66 nM and the “Dmax (%) H1975 # 28 DTC” value was found to be 83.91%.

For the compound `CCOc1cc(N2CCC(N3CCN(CCc4cc(F)c([C@H]5CCC(=O)NC5=O)c(F)c4)[C@H](CO)C3)CC2)c(CC)cc1Nc1ncc(Br)c(Nc2ccc3nc(CC)ccc3c2P(C)(C)=O)n1` [Example 657, (R)-3-(4-(2-((S)-4-(1-(4-((5-bromo-4-((5-(dimethylphosphoryl)-2-ethylquinolin-6-yl)amino)pyrimidin-2-yl)amino)-5-ethoxy-2-ethylphenyl)piperidin-4-yl)-2-(hydroxymethyl)piperazin-1-yl)ethyl)-2,6-difluorophenyl)piperidine-2,6-dione], in test [1], the 50% degradation concentration (DC50) was 3.3 nM and the Dmax is 87.7%. Besides, in test [2], the DC50 was found to be 0.981 nM and the “Dmax (%) H1975 # 28 DTC” value was found to be 86.35%.

As for `CCc1ccc2c(P(C)(C)=O)c(Nc3nc(Nc4cc(CC)c(N5CCC(N6CCN(C(=O)Cc7c(C)ccc8c7C(C)(C)C(=O)N8C7CCC(=O)NC7=O)CC6)CC5)cc4OC)ncc3Br)ccc2n1` (stereo not drawn) [Example 658, 3-(4-(2-(4-(1-(4-((5-bromo-4-((5-(dimethylphosphoryl)-2-ethylquinolin-6-yl)amino)pyrimidin-2-yl)amino)-2-ethyl-5-methoxyphenyl)piperidin-4-yl)piperazin-1-yl)-2-oxoethyl)-3,3,5-trimethyl-2-oxoindolin-1-yl)piperidine-2,6-dione], in test [1], the half-maximal degradation concentration (DC50) was determined as 4.46 nM and the Dmax worked out at 84.2%. For the same compound, in test [2], the DC50 is 0.59 nM and the “Dmax (%) H1975 # 28 DTC” value is recorded as 71.03 7%.

As for `CCOc1cc(N2CCC(N3CCN(CCc4cc(F)c5c(c4)C4(CC4)C(=O)N5C4CCC(=O)NC4=O)CC3)CC2)c(CC)cc1Nc1ncc(Br)c(Nc2ccc3nc(CC)ccc3c2P(C)(C)=O)n1` (stereo not drawn) [Example 659, 3-(5′-(2-(4-(1-(4-((5-bromo-4-((5-(dimethylphosphoryl)-2-ethylquinolin-6-yl)amino)pyrimidin-2-yl)amino)-5-ethoxy-2-ethylphenyl)piperidin-4-yl)piperazin-1-yl)ethyl)-7′-fluoro-2′-oxospiro[cyclopropane-1,3′-indolin]-1′-yl)piperidine-2,6-dione], in test [1], the DC50 was determined as 17.8 nM and the Dmax came out at 73.3%. Also, in test [2], the DC50 was 2.8 nM and the “Dmax (%) H1975 # 28 DTC” value worked out at 77.5%.
